Measurements taken from patent US20210147367A1, “CRYSTALLINE FORMS OF A MAGL INHIBITOR” (Lundbeck La Jolla Research Center, Inc., priority 2019, published 2021).
Entries after “also recorded” stand apart in the source; their conditions may differ. Like-named read-outs stand apart in the source and are kept apart here.

Assays:
[1] = Slurry experiments in different solvents; format: physicochemical
[2] = Differential scanning calorimetry (DSC) with XRPD after heating: relative stability of crystalline forms; format: physicochemical; conditions: for thermodynamic stability relative to other crystalline forms: DSC analysis; for solid form after heating (XRPD): heated to 130° C., above the exotherm, prior to melting
Protocol: X-Ray powder diffractograms were measured on a PANalytical X'Pert PRO X-Ray Diffractometer using CuKα1 radiation (λ=1.5406 Å). The samples were measured in reflection mode in the 2θ-range 3-40 using an X'celerator detector.
Differential Scanning Calorimetry was measured using a TA-Instruments Discovery-DSC calibrated at 5°/min to give the melting point as onset value. About 2 mg of sample is heated 5°/min under nitrogen flow in a closed pan with a pinhole in the lid.

[3] = Dynamic vapor sorption (DVS); format: physicochemical
Protocol: Dynamic vapour sorption (DVS) was measured using SMS DVS advantage 01 changing the relative humidity from 0% RH to 95% RH in steps of 10% RH (5% between 90 and 95% RH). 2 cycles were performed using 4 mg, starting at 30% RH. The weight changes during the sorption/desorption cycles were plotted, allowing for the hygroscopic nature of the sample to be determined.

MAGL [4] = target: T1, MAGL (Mus musculus, UniProt O35678); experiment: MAGL inhibition in mouse brain proteomes from inhibitor treated mice; format: in vivo; conditions: 5 mg/kg oral gavage, brain proteome 4 h after administration, C57Bl/6J mice, read-out: MAGL % inh. 5 mg/kg (mouse)
T1 construct: from tissue; host or cells: brain of wild-type C57Bl/6J mice
T1 sequence (O35678 1-303): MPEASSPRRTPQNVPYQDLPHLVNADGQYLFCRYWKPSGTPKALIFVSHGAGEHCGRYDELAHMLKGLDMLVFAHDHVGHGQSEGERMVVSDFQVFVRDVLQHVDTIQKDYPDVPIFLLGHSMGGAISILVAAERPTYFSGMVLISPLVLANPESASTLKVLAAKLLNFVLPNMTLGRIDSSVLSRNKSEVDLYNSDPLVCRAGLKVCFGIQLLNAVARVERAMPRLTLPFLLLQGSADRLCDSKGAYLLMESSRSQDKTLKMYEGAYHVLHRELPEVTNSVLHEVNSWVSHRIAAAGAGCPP
Protocol: (§1) Proteomes (mouse brain membrane fraction or cell lysates for mouse assays; human prefrontal cortex or cell membrane fractions for human assays) (50 μL, 1.0 mg/mL total protein concentration) were preincubated with varying concentrations of inhibitors at 37° C. After 30 min, FP-Rh or HT-01 (1.0 μL, 50 μM in DMSO) was added and the mixture was incubated for another 30 min at 37° C. Reactions were quenched with SDS loading buffer (15 μL-4×) and run on SDS-PAGE. Following gel imaging, serine hydrolase activity was determined by measuring fluorescent intensity of gel bands corresponding to MAGL using ImageJ 1.43u software.
Inhibitors were administered to wild-type C57Bl/6J by oral gavage in a vehicle of polyethylene glycol. Each animal was sacrificed 4 h following administration and brain proteomes were prepared and analyzed according to previously established methods (See Niphakis et al., ACS Chem. Neurosci. 2011 and Long et al. Nat. Chem. Biol. 2009).

MAGL [5] = target: T2, MAGL (Homo sapiens, UniProt Q99685); experiment: In vitro competitive activity-based protein profiling; format: biochemical
T2 construct: human prefrontal cortex or cell membrane fractions for human assays; from tissue
T2 sequence (Q99685 1-303): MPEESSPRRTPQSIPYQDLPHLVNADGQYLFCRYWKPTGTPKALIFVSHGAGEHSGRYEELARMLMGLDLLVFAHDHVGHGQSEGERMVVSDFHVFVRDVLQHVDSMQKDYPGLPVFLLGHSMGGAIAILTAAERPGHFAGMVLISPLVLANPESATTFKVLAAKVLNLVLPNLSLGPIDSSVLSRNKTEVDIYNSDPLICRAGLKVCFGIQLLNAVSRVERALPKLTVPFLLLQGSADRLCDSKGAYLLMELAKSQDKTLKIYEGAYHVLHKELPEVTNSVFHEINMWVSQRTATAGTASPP
Protocol: as §1

## CC(C)(Oc1cc(C(F)(F)F)ccc1CN1CCN(C(=O)OC(C(F)(F)F)C(F)(F)F)CC1)C(=O)O [Compound (I) form A, 2-(2-((4-(((1,1,1,3,3,3-hexafluoropropan-2-yl)oxy)carbonyl)piperazin-1-yl)methyl)-5-(trifluoromethyl)phenoxy)-2-methylpropanoic acid form A]
[1]; different solvents, temperatures up to 60° C.
  transformation of solid form in slurry: did not lead to transformation into Compound (I) Form D
[2]
  thermodynamic stability relative to other crystalline forms: the most stable free form up to 60 °C
[2]; listed as Compound (I) Form A
  thermodynamic stability relative to other crystalline forms: thermodynamically more stable than Compound (I) Form C; also recorded: thermodynamically more stable than Compound (I) Form E

## CC(C)(Oc1cc(C(F)(F)F)ccc1CN1CCN(C(=O)OC(C(F)(F)F)C(F)(F)F)CC1)C(=O)O [Compound (I) form C, 2-(2-((4-(((1,1,1,3,3,3-hexafluoropropan-2-yl)oxy)carbonyl)piperazin-1-yl)methyl)-5-(trifluoromethyl)phenoxy)-2-methylpropanoic acid form C]
[2]; listed as Compound (I) Form C
  solid form after heating (XRPD): transformed into Form A

## CC(C)(Oc1cc(C(F)(F)F)ccc1CN1CCN(C(=O)OC(C(F)(F)F)C(F)(F)F)CC1)C(=O)O [Compound (I) form D, 2-(2-((4-(((1,1,1,3,3,3-hexafluoropropan-2-yl)oxy)carbonyl)piperazin-1-yl)methyl)-5-(trifluoromethyl)phenoxy)-2-methylpropanoic acid form D]
[1]; compared with Form A, inferred from slurry experiments
  temperature above which Compound (I) Form D is the more stable form: ≥ 60 °C
[2]
  thermodynamic stability relative to other crystalline forms: more thermodynamically stable at higher temperatures
[2]; listed as Compound (I) Form D
  thermodynamic stability relative to other crystalline forms: more thermodynamically stable at high temperature but less stable at low temperature compared to Compound (I) Form A

## CC(C)(Oc1cc(C(F)(F)F)ccc1CN1CCN(C(=O)OC(C(F)(F)F)C(F)(F)F)CC1)C(=O)O [Compound (I) form E, 2-(2-((4-(((1,1,1,3,3,3-hexafluoropropan-2-yl)oxy)carbonyl)piperazin-1-yl)methyl)-5-(trifluoromethyl)phenoxy)-2-methylpropanoic acid form E]
[2]; listed as Form E
  solid form after heating (XRPD): transformed into Compound (I) Form A

## CC(C)(Oc1cc(C(F)(F)F)ccc1CN1CCN(C(=O)OC(C(F)(F)F)C(F)(F)F)CC1)C(=O)O.O [Compound (I) hydrate, 2-(2-((4-(((1,1,1,3,3,3-hexafluoropropan-2-yl)oxy)carbonyl)piperazin-1-yl)methyl)-5-(trifluoromethyl)phenoxy)-2-methylpropanoic acid hydrate]
[3]; 0% RH to 95% RH, 2 cycles
  behaviour in sorption/desorption cycles: dehydration of the hydrate occurs at low relative humidity
[3]; after 2 cycles 0% RH to 95% RH
  solid state after DVS measurement: turned amorphous

## CC(C)(Oc1cc(C(F)(F)F)ccc1CN1CCN(C(=O)OC(C(F)(F)F)C(F)(F)F)CC1)C(=O)O [Compound (I), 2-(2-((4-(((1,1,1,3,3,3-hexafluoropropan-2-yl)oxy)carbonyl)piperazin-1-yl)methyl)-5-(trifluoromethyl)phenoxy)-2-methylpropanoic acid]
MAGL [4]
  inhibition at 5 mg/kg: ≥ 75%
MAGL [5]; 1 μM, human proteome, read-out: MAGL % inh. 1 μM (human)
  inhibition at 1 µM: ≥ 75%
MAGL [5]; human proteome, read-out: MAGL IC50 (human)
  IC50: ≤ 0.05 µM
MAGL [5]; protocol of example 14, read-out: MAGL IC50
  IC50: ≤ 0.05 µM
